Measurements taken from patent US20240010606A1, “FUMARATE DERIVATIVES AND THEIR MEDICAL USE” (Sitryx Therapeutics Limited, priority 2020, published 2024).

How the values were obtained:
hepatocytes [1] = experiment: Hepatocyte stability assay, mouse; format: in vitro ADME; conditions: 10 μM compound
Method in brief: (§1)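 Cryopreserved hepatocytes (viability >70%) at 0.5×10^6 cells/mL in Leibovitz buffer, preincubated 10 min at 37 °C, then compound at 10 μM (0.1% DMSO) in duplicate; buffer-only incubations as control. Samples at 0-60 min quenched in acetonitrile, analysed by LC-MS/MS; half-life and CLint (μL min^−1 10^−6 cells) from ln % remaining versus time.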

[2] = Hepatocyte stability assay, mouse; format: in vitro ADME; conditions: mouse, cryopreserved hepatocytes, 10 μM compound
Method in brief: as §1

IL-1β = experiment: THP-1 AlphaLISA IL-1β cytokine assay; format: cell-based; conditions: Homo sapiens, differentiated THP-1 cells
Method in brief: (§2)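 THP-1 cells differentiated 72 h with PMA, pre-incubated 30 min with compounds, stimulated 24 h with LPS, then 1 h with nigericin, all at 37 °C. Supernatant cytokine measured by AlphaLISA; % inhibition normalised to ±LPS controls and IC50 taken from concentration-response curves.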

hepatocytes [3] = experiment: Hepatocyte stability assay, human; format: in vitro ADME; conditions: 10 μM compound
Method in brief: as §1

[4] = Hepatocyte stability assay, human; format: in vitro ADME; conditions: cryopreserved hepatocytes, 10 μM compound
Method in brief: as §1

IL-6 = experiment: THP-1 AlphaLISA IL-6 cytokine assay; format: cell-based; conditions: Homo sapiens, THP-1, differentiated THP-1 cells
Method in brief: as §2

NRF2 = NRF2 activation assay (DiscoverX PathHunter NRF2 translocation kit, U2OS cells); format: cell-based
Method in brief: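 PathHunter U2OS cells, grown 24 h at 37 °C/5% CO2, treated 6 h with compound; NRF2 nuclear translocation read as enzyme-fragment-complementation chemiluminescence. Activation normalised to dimethyl fumarate high and untreated low controls; EC50 from concentration-response curve.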

[5] = Table 2, compounds of formula (II)
[6] = +GSH, Table 4, compounds of formula (II)
[7] = −GSH, Table 4, compounds of formula (II)

Compound	CIint (hepatocytes [1]; Table 6)	half-life at 10 μM ([2]; Table 6, read-out: T½) [min]	IC50 (IL-1β; [5]) [µM]	CIint (hepatocytes [3]; Table 6)	half-life at 10 μM ([4]; Table 6, read-out: T½) [min]	IC50 (IL-6; [5]) [µM]	EC50 (NRF2; [6]) [µM]	NRF2 activation Emax (NRF2; [6])	EC50 (NRF2; [7]) [µM]	NRF2 activation Emax (NRF2; [7])	CIint (hepatocytes [1]; Table 5)	half-life at 10 μM ([2]; Table 5, read-out: T½) [min]	IC50 (IL-1β; LPS then Nigericin, Table 1) [µM]	CIint (hepatocytes [3]; Table 5)	half-life at 10 μM ([4]; Table 5, read-out: T½) [min]	IC50 (IL-6; LPS then Nigericin, Table 1) [µM]	EC50 (NRF2; +GSH, Table 3) [µM]	NRF2 activation Emax (NRF2; +GSH, normalised to dimethyl fumarate high control, Table 3)	EC50 (NRF2; −GSH, Table 3) [µM]	NRF2 activation Emax (NRF2; −GSH, normalised to dimethyl fumarate high control, Table 3)
O=C(O)/C=C/C(=O)OC1(c2ccc(C(F)(F)F)cc2)CC(F)(F)C1 [Intermediate 32, (E)-4-(3,3-difluoro-1-(4-(trifluoromethyl)phenyl)cyclobutoxy)-4-oxobut-2-enoic acid]	+++ (+++ means >15-30)	30 to 100	< 6	+++ (+++ means >15-30)	30 to 100	< 6														
C[C@@H](OC(=O)/C=C/C(=O)O)c1ccc(C(F)(F)F)cc1 [Intermediate 20, (R,E)-4-oxo-4-(1-(4-(trifluoromethyl)phenyl)ethoxy)but-2-enoic acid]	+++ (+++ means >15-30)	30 to 100	6 to 30	++++ (++++ means 5-15)	> 100	6 to 30	23 to 48.4	+ (+ means >50-<87%)	< 23	+++ (+++ means >114-150%)										
C[C@H](OC(=O)/C=C/C(=O)O)c1ccc(C(F)(F)F)cc1 [Intermediate 19, (S,E)-4-oxo-4-(1-(4-(trifluoromethyl)phenyl)ethoxy)but-2-enoic acid]	++ (++ means >30-110)	5 to 29	6 to 30	++++ (++++ means 5-15)	> 100	6 to 30	< 23	+++ (+++ means >114-150%)	< 23	++++ (++++ means >150%)										
O=C(O)/C=C/C(=O)OC1(c2ccc(C(F)(F)F)cc2)CC1 [Intermediate 38, (E)-4-oxo-4-(1-(4-(trifluoromethyl)phenyl)cyclopropoxy)but-2-enoic acid]	++ (++ means >30-110)	5 to 29	< 6	+++ (+++ means >15-30)	30 to 100	6 to 30	< 23	+ (+ means >50-<87%)	< 23	++++ (++++ means >150%)										
O=C(O)/C=C/C(=O)OC1(c2cc(Cl)cc(OC(F)(F)F)c2)CCC1 [Intermediate 41, (E)-4-(1-(3-chloro-5-(trifluoromethoxy)phenyl)cyclobutoxy)-4-oxobut-2-enoic acid]	++ (++ means >30-110)	30 to 100	6 to 30	++++ (++++ means 5-15)	> 100	6 to 30														
O=C(O)/C=C/C(=O)OC1(c2ccc(Br)cc2)CCC1 [Intermediate 12, (E)-4-(1-(4-bromophenyl)cyclobutoxy)-4-oxobut-2-enoic acid]	+++ (+++ means >15-30)	30 to 100	6 to 30	+++ (+++ means >15-30)	30 to 100	6 to 30	< 23	++ (++ means >87-114%)	< 23	++ (++ means >87-114%)										
O=C(O)COC(=O)/C=C/C(=O)OC1(c2ccc(C(F)(F)F)cc2)CCC1 [Example 15, (E)-2-((4-oxo-4-(1-(4-(trifluoromethyl)phenyl)cyclobutoxy)but-2-enoyl)oxy) acetic acid]											+ (+ means >277)	< 5	< 2.5	+++ (+++ means 50-149)	5 to 29	2.5 to 6.1	> 100	+ (+ means >17.1-99)	2.1 to 6	+++ (+++ means 150-199%)
C[C@H]1C[C@](OC(=O)/C=C/C(=O)O)(c2ccc(C(F)(F)F)cc2)C1 (single isomer, unassigned) [Intermediate 33, (E)-4-((cis)-3-methyl-1-(4-(trifluoromethyl)phenyl)cyclobutoxy)-4-oxobut-2-enoic acid]	+++ (+++ means >15-30)	30 to 100	< 6	++++ (++++ means 5-15)	> 100	< 6														
